Earlier results on two molecules are cited in patent US20240238347A1, “PHOTORECEPTOR CELLS FOR RETINAL AND MACULAR REPAIR” (The Johns Hopkins University, priority 2021, published 2024).

Like-named read-outs stand apart in the source and are kept apart here.

The subject of data set [1] is ESC- and iPSC-derived organoids.
For a further data set, the system named is Thrβ mutant organoids. Conditions: Thrβ KO+T3; early T3 addition.
Data set [2] has as its system WERI-Rb1 retinoblastoma cells. The settings on record: retinoblastoma cell line treated with T3.
[3] abbreviates: 'Early RA': 1.0 μM RA from days 43 to 130.
The mark [4] stands for this setting: 'Late RA': 1.0 μM RA from days 130 to 200.
The mark [5] stands for this setting: wild type+T3, 20 nM T3 starting from days 20 to 50 until day 200 of differentiation.

Turning to `CC1=C(/C=C/C(C)=C/C=C/C(C)=C/C(=O)O)C(C)(C)CCC1` [RA, all-trans retinoic acid], in the data set with human retinal organoids (setting [3]), the “L cones at day 200” value was 1.65%, the “M cones at day 200” value was 98.35% and the “co-expressing cones at day 200” value is reported as 0%. In addition, in the data set with human retinal organoids (setting [4]), the “L cones at day 200” value was 92.56%, the “M cones at day 200” value is given as 6.35% and the “co-expressing cones at day 200” value was 1.10%. Moreover, the “M-opsin and L-opsin expression (RNA-seq)” value in the data set on human retinal organoids (ESC-derived organoids grown in 'Early RA' conditions) is “high M-opsin and minimal L-opsin expression”. In addition, the “overall M/L cone densities at day 200” value in the data set on human retinal organoids (across experimental conditions (No RA, Early RA, Late RA)) is “no significant differences”. Besides, the “M-opsin expression (previously published RNA-seq data)” value with human retinal organoids (iPSC-derived organoids grown in 'Early RA' conditions) is reported as “near exclusive expression of M-opsin”. Also, the “organoid differentiation / M or L cone yield” value with human retinal organoids (supplemental RA throughout development (N=6)) is given as “failed to differentiate, yielding minimal M or L cones”.

As to `N[C@@H](Cc1cc(I)c(Oc2ccc(O)c(I)c2)c(I)c1)C(=O)O` [T3, triiodothyronine], in data set [1] (early T3 addition in organoids), the cone density entry is “dramatically increased cone density”. Moreover, in data set [1] (setting [5]), the “L/M cones (L/M-opsin expressing), share of cones” value was 96% and the “S cones (S-opsin expressing), share of cones” value was 4%. In addition, in the data set on Thrβ mutant organoids, the “L/M cones, share of cones” value was 0% and the “S cones, share of cones” value is reported as 100%. Further, the L/M-opsin expression entry in data set [2] is given as “expresses L/M-opsin”.
